# Molecular target: T1, mutant form of the human GPR119 receptor (Homo sapiens, UniProt Q8TDV5, S329A/T327A)
# T1 construct: expressed in transfected cells
# T1 sequence (Q8TDV5 with tags, fused parts or gaps T327A/S329A): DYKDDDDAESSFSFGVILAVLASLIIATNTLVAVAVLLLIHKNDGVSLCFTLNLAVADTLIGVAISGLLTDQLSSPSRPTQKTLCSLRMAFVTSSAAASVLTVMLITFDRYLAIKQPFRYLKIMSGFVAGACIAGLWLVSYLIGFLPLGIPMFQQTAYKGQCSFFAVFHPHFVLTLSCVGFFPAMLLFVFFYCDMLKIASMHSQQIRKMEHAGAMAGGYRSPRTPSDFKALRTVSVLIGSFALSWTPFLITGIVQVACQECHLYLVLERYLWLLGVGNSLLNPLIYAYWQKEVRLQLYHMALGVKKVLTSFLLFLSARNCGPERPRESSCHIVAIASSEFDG
# Test: LANCE cAMP-384 assay in HEK293 cells stably expressing a mutant form of the human GPR119 receptor
# Assay type: cell-based
# Conditions: mutant human GPR119, LANCE cAMP-384 Kit, 20 min at 37° C., read-out: EC50 (cAMP accumulation)
# Procedure: Quantitative detection of cAMP accumulation from cells expressing human GPR119 receptor is achieved using Perkin Elmer's LANCE cAMP-384 Kit (Cat#AD0264) according to the manufacturer's protocol. Briefly, HEK293 cells stably expressing a mutant form of the human GPR119 receptor as assay tool (Methionine 1 replaced with the amino acid sequence […], and T327 & S329 changed to alanines; SEQ ID No. 1) are grown to 50-70% confluency in cell culture media (DMEM, 10% heat inactivated Fetal Bovine Serum, 50 I.U./mL penicillin, 50 μg/mL streptomycin, 10 mM HEPES, 20 μg/mL G418 Sulfate). On the day of the assay, GPR119 stable HEK293 cells are lifted from the tissue culture plate and 1000 cells/well are incubated along with various concentrations of test compounds for 20 min at 37° C. Detection Buffer (50 mM HEPES, 10 mM calcium chloride, 0.35% Triton X-100, 1 mg/mL BSA) containing cAMP-specific antibody is then added to all wells and allowed to equilibrate in the dark for 10 minutes at room temperature. Upon equilibration, Detection Buffer containing europium-labeled cAMP tracer complex is added to all wells and allowed to react for 1 hour at room temperature. After 1 hour, bound europium-labeled cAMP tracer is measured using a Perkin Elmer Envision plate reader. The quantity of cAMP generated in each well is derived from a standard curve. EC50 is determined using nonlinear regression analysis of the cAMP values over a range of agonist concentration (12 points spanning the range from 30 μM to […]).
row,SMILES,EC50
1,"Cc1nnnn1-c1ccc(C(=O)N(C2CC2)C2CCN(C(=O)OC(C)C)CC2F)cn1 (single isomer, unassigned) [Example 249]",146 nM
2,CC(C)OC(=O)N1CC[C@@H](N(C(=O)c2cnc(-n3cncn3)cn2)C2CC2)[C@@H](F)C1 [Example 248],54 nM
3,Cc1nccn1-c1ncc(C(=O)N(C2CC2)[C@@H]2CCN(C(=O)OC(C)C)C[C@@H]2F)cn1 [Example 250],45 nM
4,Cc1nccn1-c1ncc(C(=O)N(C2CC2)[C@H]2CCN(C(=O)OC(C)C)C[C@H]2F)cn1 [Example 251],587 nM
5,Cc1ncnn1-c1ccc(C(=O)N(C2CC2)[C@@H]2CCN(C(=O)OC(C)C)C[C@@H]2F)cn1 [Example 252],193 nM
6,CC(C)OC(=O)N1CCC(N(C(=O)c2cnc(-n3cncn3)cn2)C2CC2)CC1 [Example 253],435 nM
7,Cc1nccn1-c1cnc(C(=O)N(C2CC2)C2CCN(C(=O)OC(C)C)CC2)cn1 [Example 254],518 nM
8,Cc1ncn(-c2cnc(C(=O)N(C3CC3)C3CCN(C(=O)OC(C)C)CC3)cn2)n1 [Example 255],1550 nM
9,Cc1nccn1-c1ncc(C(=O)N(C2CC2)C2CCN(C(=O)OC(C)C)CC2)cn1 [Example 256],265 nM
10,CC(C)OC(=O)N1CC[C@H](N(C(=O)c2cnc(-n3cncn3)cn2)C2CC2)[C@H](F)C1 [Example 257],801 nM

# Source: patent US20140045823A1 (Neurocrine Biosciences, Inc., priority 2012, published 2014)
